In the Kinase Knowledgebase extract (Sharma et al. 2016):

Tests used:
PIK3CA (human) [1] = target: PIK3CA (human) (UniProt P42336); experiment: Enzyme Assay
PIK3CA (human) [2] = target: PIK3CA (human) (UniProt P42336); experiment: Assessment of Cell Proliferation in MDA-MB-361.1 Cells; conditions: mda-mb-361
PIK3CA (human) [3] = target: PIK3CA (human) (UniProt P42336); experiment: Assessment of Cell Proliferation in PC3 Cells; conditions: pc-3

Sequence of PIK3CA (human) (P42336 whole entry, looked up): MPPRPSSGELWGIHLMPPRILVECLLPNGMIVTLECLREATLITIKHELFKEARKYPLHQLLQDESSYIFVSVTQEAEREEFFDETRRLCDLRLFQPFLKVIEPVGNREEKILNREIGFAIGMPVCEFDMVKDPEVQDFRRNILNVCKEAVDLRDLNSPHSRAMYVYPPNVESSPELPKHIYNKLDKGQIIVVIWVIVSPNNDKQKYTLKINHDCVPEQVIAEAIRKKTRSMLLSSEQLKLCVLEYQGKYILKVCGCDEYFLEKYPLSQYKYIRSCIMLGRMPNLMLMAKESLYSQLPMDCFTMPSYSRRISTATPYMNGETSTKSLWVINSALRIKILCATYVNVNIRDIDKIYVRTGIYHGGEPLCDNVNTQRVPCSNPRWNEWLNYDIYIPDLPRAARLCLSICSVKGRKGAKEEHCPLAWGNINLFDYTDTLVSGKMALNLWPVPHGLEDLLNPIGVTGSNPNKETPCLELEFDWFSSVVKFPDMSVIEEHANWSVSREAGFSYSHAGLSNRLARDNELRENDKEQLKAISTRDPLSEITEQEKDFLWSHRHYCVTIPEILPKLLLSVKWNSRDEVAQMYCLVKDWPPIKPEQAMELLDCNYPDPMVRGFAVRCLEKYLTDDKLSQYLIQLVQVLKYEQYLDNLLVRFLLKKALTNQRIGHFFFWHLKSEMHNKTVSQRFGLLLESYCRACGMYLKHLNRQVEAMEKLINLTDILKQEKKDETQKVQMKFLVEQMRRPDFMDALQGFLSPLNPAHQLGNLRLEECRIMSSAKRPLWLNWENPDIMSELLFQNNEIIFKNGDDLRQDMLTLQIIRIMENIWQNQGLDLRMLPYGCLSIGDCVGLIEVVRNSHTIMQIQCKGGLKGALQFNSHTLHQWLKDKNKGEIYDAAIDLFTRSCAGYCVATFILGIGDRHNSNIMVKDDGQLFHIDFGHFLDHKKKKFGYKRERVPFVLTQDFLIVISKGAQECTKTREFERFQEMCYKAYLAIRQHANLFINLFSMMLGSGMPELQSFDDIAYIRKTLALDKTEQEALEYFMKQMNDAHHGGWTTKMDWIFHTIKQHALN

## CC1(C)OCCn2c1nc1c(N3CCOCC3)nc(-c3cn[nH]c3)nc12
PIK3CA (human) [1]
  IC50: 382 nM

## Nc1ncc(-c2nc(N3CCOCC3)c3nc4n(c3n2)CCC2(CC2)O4)cn1
PIK3CA (human) [1]
  IC50: 1.37 nM

## CC1(C)OCCn2c1nc1c(N3CCOCC3)nc(-c3ccc(N)cc3)nc12
PIK3CA (human) [1]
  IC50: 541 nM

## CC(C)Cn1cc(-c2nc(N3CCOCC3)c3nc4n(c3n2)CCOC4(C)C)cn1
PIK3CA (human) [2]
  EC50: 10000 nM
PIK3CA (human) [3]
  EC50: 10000 nM

## CC1(C)CN(c2nc(-c3cnc(N)nc3)nc3c2nc2n3CCOC2(C)C)CCO1
PIK3CA (human) [2]
  EC50: 1500 nM
PIK3CA (human) [1]
  IC50: 201 nM
PIK3CA (human) [3]
  EC50: 1400 nM

## CC1(C)OCCn2c1nc1c(N3CCOCC3)nc(-c3cccc(O)c3)nc12
PIK3CA (human) [1]
  IC50: 4.58 nM

## CC1(C)OCCn2c1nc1c(N3CCOCC3)nc(-c3ccnc(N)c3)nc12
PIK3CA (human) [1]
  IC50: 685 nM

## CC1(C)CCn2c(nc3c(N4CCOCC4)nc(-c4cnc(N)nc4)nc32)O1
PIK3CA (human) [2]
  EC50: 958 nM
PIK3CA (human) [1]
  IC50: 5.09 nM
PIK3CA (human) [3]
  EC50: 1800 nM

## C[C@@H]1CN(c2nc(-c3cnc(N)nc3)nc3c2nc2n3CCOC2(C)C)C[C@H](C)O1
PIK3CA (human) [2]
  EC50: 3100 nM
PIK3CA (human) [1]
  IC50: 14 nM
PIK3CA (human) [3]
  EC50: 3800 nM

## CC(=O)Nc1ncc(-c2nc(N3CCOCC3)c3nc4n(c3n2)CCOC4(C)C)cn1
PIK3CA (human) [1]
  IC50: 242 nM

## CC1(C)OCCn2c1nc1c(N3CCOCC3)nc(-c3ccc(N)cn3)nc12
PIK3CA (human) [2]
  EC50: 10000 nM
PIK3CA (human) [3]
  EC50: 10000 nM

## CC1c2nc3c(N4CCOCC4)nc(-c4cnc(N)nc4)nc3n2CCN1C (centres undefined)
PIK3CA (human) [2]
  EC50: 889 nM
PIK3CA (human) [1]
  IC50: 6.89 nM
PIK3CA (human) [3]
  EC50: 1900 nM

## Nc1ncc(-c2nc(N3CCOCC3)c3nc4n(c3n2)CCO[C@@H]4C(F)(F)F)cn1
PIK3CA (human) [1]
  IC50: 3.45 nM

## CC1=COC(C)(C)c2nc3c(N4CCOCC4)nc(-c4cnc(N)nc4)nc3n21
PIK3CA (human) [1]
  IC50: 4.73 nM

## CC1(C)OCCc2c1sc1c(N3CCOCC3)nc(-c3cnc(N)nc3)nc21
PIK3CA (human) [2]
  EC50: 237 nM
PIK3CA (human) [1]
  IC50: 1 nM
PIK3CA (human) [3]
  EC50: 215 nM

## CC1(C)OCCn2c1nc1c(N3CCOCC3)nc(-c3cccc4[nH]ncc34)nc12
PIK3CA (human) [1]
  IC50: 19.8 nM

## CC1(C)OCCn2c1nc1c(N3CCOCC3)nc(-c3cnc4[nH]ccc4c3)nc12
PIK3CA (human) [1]
  IC50: 14 nM

## CC[C@]1(C)OCCn2c1nc1c(N3CCOCC3)nc(-c3cnc(N)nc3)nc12
PIK3CA (human) [1]
  IC50: 3.11 nM

## Nc1ncc(-c2nc(N3CCOCC3)c3c(n2)N2CCC[C@H]2CO3)cn1
PIK3CA (human) [2]
  EC50: 3200 nM
PIK3CA (human) [1]
  IC50: 77.9 nM
PIK3CA (human) [3]
  EC50: 2000 nM

## CC1(C)OCCn2c1cc1c(N3CCOCC3)nc(-c3cnc(N)nc3)nc12
PIK3CA (human) [2]
  EC50: 94 nM
PIK3CA (human) [1]
  IC50: 0.831 nM
PIK3CA (human) [3]
  EC50: 185 nM

## Nc1cc(C(F)(F)F)c(-c2nc(N3CCOCC3)c3nc4n(c3n2)CCOC4)cn1
PIK3CA (human) [1]
  IC50: 11.2 nM

## FC(F)(F)C1OCCn2c1nc1c(N3CCOCC3)nc(-c3cccc4[nH]ncc34)nc12 (centres undefined)
PIK3CA (human) [2]
  EC50: 4400 nM
PIK3CA (human) [1]
  IC50: 45.2 nM
PIK3CA (human) [3]
  EC50: 6900 nM

## Nc1ncc(-c2nc(N3CCOCC3)c3nc4n(c3n2)CCOC42COC2)cn1
PIK3CA (human) [1]
  IC50: 2.45 nM

## Nc1ncc(-c2nc(N3CCOCC3)c3nc4n(c3n2)CCCC4)cn1
PIK3CA (human) [1]
  IC50: 3.88 nM

## CCNC(=O)Nc1ccc(-c2nc(N3CCOCC3)c3nc4n(c3n2)CCOC4(C)C)cc1
PIK3CA (human) [1]
  IC50: 41.7 nM

## CC(C)NC(=O)Nc1ccc(-c2nc(N3CCOCC3)c3nc4n(c3n2)CCOC4(C)C)cc1
PIK3CA (human) [2]
  EC50: 1200 nM
PIK3CA (human) [1]
  IC50: 337 nM
PIK3CA (human) [3]
  EC50: 1300 nM

## Nc1ncc(-c2nc(N3CCOCC3)c3nc4n(c3n2)CCC4)cn1
PIK3CA (human) [1]
  IC50: 8.26 nM

## Nc1ncc(-c2nc(N3CCOCC3)c3nc4n(c3n2)CCOC4)cn1
PIK3CA (human) [1]
  IC50: 4.32 nM

## Nc1ccc(-c2nc(N3CCOCC3)c3nc4n(c3n2)CCCC4)cn1
PIK3CA (human) [1]
  IC50: 50.7 nM

## CNC(=O)Nc1ccc(-c2nc(N3CCOCC3)c3nc4n(c3n2)CCOC4(C)C)cc1
PIK3CA (human) [1]
  IC50: 6.71 nM

## CC1(C)OCCn2c1nc1c(N3CCOCC3)nc(-c3ccc(N)nc3)nc12
PIK3CA (human) [1]
  IC50: 18.6 nM

## CC(=O)Nc1ccc(-c2nc(N3CCOCC3)c3nc4n(c3n2)CCOC4(C)C)cn1
PIK3CA (human) [1]
  IC50: 49 nM

## CC1(C)OCCn2c1nc1c(N3CCOCC3)nc(-c3cncc(C(N)=O)c3)nc12
PIK3CA (human) [1]
  IC50: 35.2 nM

## Nc1ccc(-c2nc(N3CCOCC3)c3nc4n(c3n2)CCOC4C(F)(F)F)cn1 (centres undefined)
PIK3CA (human) [1]
  IC50: 45.2 nM

## Nc1ncc(-c2nc(N3CCOCC3)c3nc4n(c3n2)CCCO4)cn1
PIK3CA (human) [1]
  IC50: 6.84 nM

## Oc1cccc(-c2nc(N3CCOCC3)c3nc4n(c3n2)CCOC4C(F)(F)F)c1 (centres undefined)
PIK3CA (human) [2]
  EC50: 920 nM
PIK3CA (human) [1]
  IC50: 79.7 nM
PIK3CA (human) [3]
  EC50: 1100 nM

## CC1(C)OCCn2c1nc1c(N3CCOCC3)nc(-c3ccccc3NS(C)(=O)=O)nc12
PIK3CA (human) [1]
  IC50: 638 nM

## CN1CCn2c(nc3c(N4CCOCC4)nc(-c4cnc(N)nc4)nc32)C1=O
PIK3CA (human) [1]
  IC50: 21.5 nM

## CCNC(=O)Nc1ccc(-c2nc(N3CCOCC3)c3c(n2)C2(C)CCOC2N3C)cc1 (centres undefined)
PIK3CA (human) [2]
  EC50: 315 nM
PIK3CA (human) [1]
  IC50: 2100 nM
PIK3CA (human) [3]
  EC50: 208 nM

## Nc1ncc(-c2nc(N3CCOCC3)c3nc4n(c3n2)CCO[C@H]4C(F)(F)F)cn1
PIK3CA (human) [2]
  EC50: 424 nM
PIK3CA (human) [1]
  IC50: 3.57 nM
PIK3CA (human) [3]
  EC50: 697 nM

## CC1(C)OCCn2c1nc1c(N3CCOCC3)nc(-c3cnc(N)cc3C(F)(F)F)nc12
PIK3CA (human) [1]
  IC50: 3.89 nM

## CC[C@@]1(C)OCCn2c1nc1c(N3CCOCC3)nc(-c3cnc(N)nc3)nc12
PIK3CA (human) [1]
  IC50: 5.96 nM

## CN(C)c1cnc(-c2nc(N3CCOCC3)c3nc4n(c3n2)CCOC4(C)C)cn1
PIK3CA (human) [2]
  EC50: 10000 nM
PIK3CA (human) [3]
  EC50: 10000 nM

## CC1(C)OCCn2c1nc1c(N3C[C@@H]4C[C@H]3CO4)nc(-c3cnc(N)nc3)nc12
PIK3CA (human) [2]
  EC50: 3400 nM
PIK3CA (human) [1]
  IC50: 394 nM
PIK3CA (human) [3]
  EC50: 3600 nM

## CC1NC(=O)Cn2c1nc1c(N3CCOCC3)nc(-c3cnc(N)nc3)nc12 (centres undefined)
PIK3CA (human) [1]
  IC50: 4.28 nM
